Measured values published in US12552785B2, “Pyrazolo[1,5-α]pyridine derivative, preparation method therefor, and composition and use thereof” (SHENZHEN ZHONGGE BIOLOGICAL TECHNOLOGY CO., LTD., priority 2020, dated 2026).

Assays:
RET = RET (Homo sapiens, UniProt P07949); test: HTRF method for testing the inhibitory activity of compounds against RET; type: biochemical; details: IC50 by nonlinear regression, read-out: RET kinase activity
Protocol: (a) In Vitro Screening Experiment-HTRF Method for Testing the Inhibitory Activity of Compounds Against RET Experimental Procedure: 1. […] 2. The test compound (5 mM stock solution) was diluted 5 folds to 1 mM with 100% dimethyl sulfoxide; the compound was diluted into 10 concentrations at an equal ratio of 1:3 in a 384-well dilution plate. 3. 0.2 μL of the serially diluted compound was added to a 384-well plate using an Echo 550 pipetting system, 2 replicate wells for each concentration, and the final concentration of dimethyl sulfoxide was 0.5% (v/v). […] 6. […] The reaction solution was centrifuged at 1000 g for 30 s, and then sealed, and incubated at room temperature for 30 min. 8. […] 10. […] 11. […] IC50 was calculated with software GraphPad 6.0 by fitting inhibition values and logarithms of compound concentrations to a nonlinear regression (dose response−variable slope).

VEGFR2 = VEGFR2 (Homo sapiens, UniProt P35968); test: HTRF method for testing the inhibitory activity of compounds against VEGFR2; type: biochemical; details: IC50 by nonlinear regression, read-out: VEGFR2 kinase activity
VEGFR2, sequence (P35968 20-1356, species assumed): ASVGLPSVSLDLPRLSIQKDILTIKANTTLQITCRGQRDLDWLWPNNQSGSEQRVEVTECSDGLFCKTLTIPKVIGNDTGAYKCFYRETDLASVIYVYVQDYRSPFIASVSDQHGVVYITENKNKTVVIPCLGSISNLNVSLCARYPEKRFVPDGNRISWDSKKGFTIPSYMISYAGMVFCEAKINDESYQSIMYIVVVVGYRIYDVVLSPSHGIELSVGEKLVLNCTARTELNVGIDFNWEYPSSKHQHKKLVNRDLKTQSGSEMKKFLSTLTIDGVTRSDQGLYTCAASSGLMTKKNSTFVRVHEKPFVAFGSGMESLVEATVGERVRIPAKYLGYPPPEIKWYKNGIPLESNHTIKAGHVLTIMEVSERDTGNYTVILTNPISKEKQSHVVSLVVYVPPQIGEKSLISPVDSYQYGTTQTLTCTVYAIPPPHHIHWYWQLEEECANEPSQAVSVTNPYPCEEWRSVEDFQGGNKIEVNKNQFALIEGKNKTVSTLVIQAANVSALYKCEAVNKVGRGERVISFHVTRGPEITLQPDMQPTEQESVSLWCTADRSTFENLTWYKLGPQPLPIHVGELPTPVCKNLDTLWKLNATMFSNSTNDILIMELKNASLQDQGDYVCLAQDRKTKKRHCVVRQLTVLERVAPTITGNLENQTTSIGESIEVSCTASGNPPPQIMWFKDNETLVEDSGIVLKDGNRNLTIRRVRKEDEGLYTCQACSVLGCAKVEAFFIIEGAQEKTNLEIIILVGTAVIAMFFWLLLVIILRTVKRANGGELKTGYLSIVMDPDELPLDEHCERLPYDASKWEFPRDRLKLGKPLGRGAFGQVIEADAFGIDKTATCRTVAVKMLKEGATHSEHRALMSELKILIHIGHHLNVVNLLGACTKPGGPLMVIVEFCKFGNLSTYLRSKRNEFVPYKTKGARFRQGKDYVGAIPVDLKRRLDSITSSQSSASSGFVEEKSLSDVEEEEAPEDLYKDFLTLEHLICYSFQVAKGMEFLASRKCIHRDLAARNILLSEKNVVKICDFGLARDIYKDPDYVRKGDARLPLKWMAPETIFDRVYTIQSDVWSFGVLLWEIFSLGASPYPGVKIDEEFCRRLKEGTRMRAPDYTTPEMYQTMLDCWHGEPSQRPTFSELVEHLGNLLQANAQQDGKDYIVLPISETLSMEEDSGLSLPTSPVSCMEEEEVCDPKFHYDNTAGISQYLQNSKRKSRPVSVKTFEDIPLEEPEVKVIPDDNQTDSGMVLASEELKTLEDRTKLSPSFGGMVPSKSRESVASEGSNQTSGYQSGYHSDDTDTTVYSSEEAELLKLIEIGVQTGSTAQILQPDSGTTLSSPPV
Protocol: (b) In Vitro Screening Experiment—HTRF Method for Testing the Inhibitory Activity of Compounds Against VEGFR2 Experimental Procedure: 1. […] The test compound (5 mM stock solution) was diluted 5 folds to 1 mM with 100% dimethyl sulfoxide; the compound was diluted into 10 concentrations at an equal ratio of 1:3 in a 384-well dilution plate. 3. […] 6. […] The reaction solution was centrifuged at 1000 g for 30 s, and then sealed, and incubated at room temperature for 40 min. 8. […] 10. […] 11. […] 12. IC50 was calculated with software GraphPad 6.0 by fitting inhibition values and logarithms of compound concentrations to a nonlinear regression (dose response−variable slope).

Ba/F3-KIF5B-RET cell = target: T1, Ba/F3-KIF5B-RET cell (Homo sapiens, UniProt P07949); test: CellTiter-Glo luminescence assay for inhibitory activity against Ba/F3-KIF5B-RET cell; type: cell-based; details: Ba/F3-KIF5B-RET cells, 72 h
T1 construct: fused on or other part: P33176 (Kinesin-1 heavy chain)
T1 sequence (P07949 whole entry, stated change not applied, the tested form may be a part): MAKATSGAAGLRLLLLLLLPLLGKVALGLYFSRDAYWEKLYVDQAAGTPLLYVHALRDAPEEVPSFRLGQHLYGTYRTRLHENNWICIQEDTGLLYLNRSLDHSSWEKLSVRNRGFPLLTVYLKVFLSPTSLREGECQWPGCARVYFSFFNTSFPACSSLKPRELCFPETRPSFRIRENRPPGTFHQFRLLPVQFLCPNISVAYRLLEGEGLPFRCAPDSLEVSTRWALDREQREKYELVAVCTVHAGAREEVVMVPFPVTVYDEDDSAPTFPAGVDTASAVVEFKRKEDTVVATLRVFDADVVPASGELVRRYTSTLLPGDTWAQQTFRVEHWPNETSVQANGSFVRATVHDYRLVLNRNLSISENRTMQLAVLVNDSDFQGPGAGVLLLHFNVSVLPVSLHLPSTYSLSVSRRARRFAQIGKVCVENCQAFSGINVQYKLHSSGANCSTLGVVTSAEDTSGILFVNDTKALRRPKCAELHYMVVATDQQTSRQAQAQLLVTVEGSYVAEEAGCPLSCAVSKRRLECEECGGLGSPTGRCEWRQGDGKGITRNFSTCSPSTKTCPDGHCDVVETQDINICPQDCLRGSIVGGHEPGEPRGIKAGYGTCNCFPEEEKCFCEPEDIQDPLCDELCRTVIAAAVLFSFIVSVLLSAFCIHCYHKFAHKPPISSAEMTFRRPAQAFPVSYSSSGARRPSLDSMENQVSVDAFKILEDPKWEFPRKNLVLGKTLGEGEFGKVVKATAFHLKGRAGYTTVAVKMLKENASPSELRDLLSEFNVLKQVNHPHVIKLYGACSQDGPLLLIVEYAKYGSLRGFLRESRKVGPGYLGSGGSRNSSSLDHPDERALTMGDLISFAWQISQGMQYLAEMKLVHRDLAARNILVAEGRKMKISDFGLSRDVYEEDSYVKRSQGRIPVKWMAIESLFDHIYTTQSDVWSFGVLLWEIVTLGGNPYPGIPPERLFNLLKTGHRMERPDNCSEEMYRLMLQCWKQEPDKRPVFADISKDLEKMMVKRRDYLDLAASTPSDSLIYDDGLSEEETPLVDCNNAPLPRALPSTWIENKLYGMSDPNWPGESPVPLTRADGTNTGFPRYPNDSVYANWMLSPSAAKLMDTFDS
Text: (c) In Vitro Screening Experiment—CellTiter-Glo Luminescence Assay for Testing the Inhibitory Activity of Compounds Against Ba/F3-KIF5B-RET Cell Experimental Procedure: 1. The mammalian cell expression vector containing human KIF5B-RET cDNA was introduced into Ba/F3 cells using the Neon® transfection system method, and the surviving clones screened by puromycin were subjected to cell growth inhibitory function experiments and Western blotting to verify cell lines with stable and high expression of RET. 2. […] 3. The test compound (5 mM stock) was diluted 2.5 folds to 2 mM with 100% dimethyl sulfoxide; and the compound was diluted into 10 concentrations at an equal ratio of 1:3 in a 384-well dilution plate. 4. […] 6. […] 7. By fitting the data with XLFit 5.0 based on the parameters formula, the IC50 value was calculated as: Y=Bottom+(Top−Bottom)/(1+10^((Log IC50−X)*HillSlope)).

RET, sequence (P07949 29-1114): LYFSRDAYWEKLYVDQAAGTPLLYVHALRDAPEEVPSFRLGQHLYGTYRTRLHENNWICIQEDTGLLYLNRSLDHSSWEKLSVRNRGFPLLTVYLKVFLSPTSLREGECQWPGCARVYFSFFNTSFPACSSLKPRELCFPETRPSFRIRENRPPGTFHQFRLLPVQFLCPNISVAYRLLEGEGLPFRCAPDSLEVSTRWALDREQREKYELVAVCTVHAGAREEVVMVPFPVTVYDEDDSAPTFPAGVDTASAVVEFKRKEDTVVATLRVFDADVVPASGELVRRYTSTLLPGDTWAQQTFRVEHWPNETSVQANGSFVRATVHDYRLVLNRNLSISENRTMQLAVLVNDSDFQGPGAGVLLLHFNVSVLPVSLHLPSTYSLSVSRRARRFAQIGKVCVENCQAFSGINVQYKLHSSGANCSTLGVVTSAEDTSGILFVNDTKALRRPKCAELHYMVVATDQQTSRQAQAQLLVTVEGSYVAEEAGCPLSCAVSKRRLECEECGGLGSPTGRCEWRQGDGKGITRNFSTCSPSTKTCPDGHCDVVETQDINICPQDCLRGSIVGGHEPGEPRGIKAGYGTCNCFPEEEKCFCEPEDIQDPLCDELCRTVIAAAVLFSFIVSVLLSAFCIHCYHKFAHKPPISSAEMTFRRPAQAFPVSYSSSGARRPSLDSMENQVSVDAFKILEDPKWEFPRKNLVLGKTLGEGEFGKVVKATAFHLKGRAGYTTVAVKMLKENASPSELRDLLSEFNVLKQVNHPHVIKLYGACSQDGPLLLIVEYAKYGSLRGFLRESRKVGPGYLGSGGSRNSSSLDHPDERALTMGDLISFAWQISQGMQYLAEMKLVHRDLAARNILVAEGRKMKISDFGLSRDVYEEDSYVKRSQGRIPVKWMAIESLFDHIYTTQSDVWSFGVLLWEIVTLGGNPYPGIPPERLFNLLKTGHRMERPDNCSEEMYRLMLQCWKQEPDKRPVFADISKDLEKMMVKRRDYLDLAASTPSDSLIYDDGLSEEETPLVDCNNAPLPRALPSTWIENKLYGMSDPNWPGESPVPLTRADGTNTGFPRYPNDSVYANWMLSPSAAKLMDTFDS

Question: How did the IC50 (RET) turn out when C[C@H](Nc1ccc(-c2cc(OCC(C)(C)O)cn3ncc(C#N)c23)cn1)c1ccc(-n2cc(F)cn2)cc1 [Compound 16, (S)-4-(6-((1-(4-(4-fluoro-1H-pyrazol-1-yl)phenyl)ethyl)amino)pyridin-3-yl)-6-(2-hydroxy-2-methylpropoxy)pyrazolo[1,5-a]pyridine-3-carbonitrile] was run?
Answer: 1.63 nM

Question: What about the IC50 (VEGFR2) of the same molecule?
Answer: 15.6 nM

Question: What about the GI50 (Ba/F3-KIF5B-RET cell) of the same molecule?
Answer: 35.5 nM

Question: For C[C@@H](c1ccc(-n2cc(F)cn2)cc1)N(C)c1ccc(-c2cc(OCC(C)(C)C#N)cn3ncc(C#N)c23)cn1 [Compound 17, (S)-6-(2-cyano-2-methylpropoxy)-4-(6-((1-(4-(4-fluoro-1H-pyrazol-1-yl)phenyl)ethyl)(methyl)amino)pyridin-3-yl)pyrazolo[1,5-a]pyridine-3-carbonitrile], which IC50 (RET) is on record?
Answer: 18.4 nM

Question: What about the IC50 (VEGFR2) of the same molecule?
Answer: 1210 nM

Question: What about the GI50 (Ba/F3-KIF5B-RET cell) of the same molecule?
Answer: 184 nM

Question: Which results are given for C[C@@H](c1ccc(-n2cc(F)cn2)nc1)N(C)c1ccc(-c2cc(OCC(C)(C)C#N)cn3ncc(C#N)c23)cn1 [Compound 18, (S)-6-(2-cyano-2-methylpropoxy)-4-(6-((1-(6-(4-fluoro-1H-pyrazol-1-yl)pyridine-3-yl)ethyl)(methyl)amino)pyridin-3-yl)pyrazolo[1,5-a]pyridine-3-carbonitrile]?
Answer: IC50 (RET): 0.4 nM; IC50 (VEGFR2): 135 nM; GI50 (Ba/F3-KIF5B-RET cell): 40 nM

Question: Which IC50 (RET) does the source give for C[C@@H](c1ccc(-n2cc(F)cn2)nc1)N(C)c1ccc(-c2cc(N3CCN(C)CC3)cn3ncc(C#N)c23)cn1 [Compound 19, (S)-4-(6-((1-(6-(4-fluoro-1H-pyrazol-1-yl)pyridin-3-yl)ethyl)(methyl)amino)pyridine-3-yl)-6-(4-methylpiperazin-1-yl)pyrazolo[1,5-a]pyridine-3-carbonitrile] here?
Answer: 0.42 nM

Question: What about the IC50 (VEGFR2) of the same molecule?
Answer: 41.1 nM

Question: What about the GI50 (Ba/F3-KIF5B-RET cell) of the same molecule?
Answer: 41 nM

Question: Which results are given for C[C@@H](c1ccc(-n2cc(F)cn2)nc1)N(C)c1ccc(-c2cc(OCCO)cn3ncc(C#N)c23)cn1 [Compound 20]?
Answer: IC50 (RET): 0.25 nM; IC50 (VEGFR2): 10.1 nM; GI50 (Ba/F3-KIF5B-RET cell): 13.5 nM

Question: What does the source list for C[C@@H](c1ccc(-n2cc(F)cn2)nc1)N(C)c1ccc(-c2cc(N3CCC(C)(O)CC3)cn3ncc(C#N)c23)cn1 [Compound 23, (S)-4-(6-((1-(6-(4-fluoro-1H-pyrazol-1-yl)pyridin-3-yl)ethyl)(methyl)amino)pyridine-3-yl)-6-(4-hydroxy-4-methylpiperidin-1-yl)pyrazolo[1,5-a]pyridine-3-carbonitrile]?
Answer: IC50 (RET): 0.82 nM; IC50 (VEGFR2): 74.9 nM; GI50 (Ba/F3-KIF5B-RET cell): 18.1 nM

Question: Which IC50 (RET) does the source give for C[C@@H](c1ccc(-n2cc(F)cn2)nc1)N(C)c1ccc(-c2cc(N3CC(C)(C#N)C3)cn3ncc(C#N)c23)cn1 [Compound 24] here?
Answer: 0.99 nM

Question: And the IC50 (VEGFR2)?
Answer: 64.6 nM

Question: And the GI50 (Ba/F3-KIF5B-RET cell)?
Answer: 5.85 nM

Question: How did the IC50 (RET) turn out when C[C@@H](c1ccc(-n2cc(F)cn2)nc1)N(C)c1ccc(-c2cc(N3CCC4(CC3)COC4)cn3ncc(C#N)c23)cn1 [Compound 25, (S)-4-(6-((1-(6-(4-fluoro-1H-pyrazol-1-yl)pyridin-3-yl)ethyl)(methyl)amino)pyridine-3-yl)-6-(2-oxo-7-azaspiro[3.5]nonan-7-yl)pyrazolo[1,5-a]pyridine-3-carbonitrile] was run?
Answer: 0.54 nM

Question: And the IC50 (VEGFR2)?
Answer: 61.1 nM

Question: What about the GI50 (Ba/F3-KIF5B-RET cell) of the same molecule?
Answer: 14.7 nM

Question: How did the IC50 (RET) turn out when C[C@@H](c1ccc(-n2cc(F)cn2)nc1)N(C)c1ccc(-c2cc(N3CCOCC3)cn3ncc(C#N)c23)cn1 [Compound 26, (S)-4-(6-((1-(6-(4-fluoro-1H-pyrazol-1-yl)pyridin-3-yl)ethyl)(methyl)amino)pyridine-3-yl)-6-morpholinopyrazolo[1,5-a]pyridine-3-carbonitrile] was run?
Answer: 0.245 nM

Question: And the IC50 (VEGFR2)?
Answer: 33 nM

Question: What about the GI50 (Ba/F3-KIF5B-RET cell) of the same molecule?
Answer: 7.4 nM

Question: C[C@@H](c1ccc(-n2cc(F)cn2)nc1)N(C)c1ccc(-c2cc(C#CC(C)(C)O)cn3ncc(C#N)c23)cn1 [Compound 27, (S)-4-(6-((1-(6-(4-fluoro-1H-pyrazol-1-yl)pyridin-3-yl)ethyl)(methyl)amino)pyridine-3-yl)-6-(3-hydroxy-3-methyl-1-yn-1-yl)pyrazolo[1,5-a]pyridine-3-carbonitrile] was tested. Which IC50 (RET) did it give?
Answer: 1.33 nM

Question: What about the IC50 (VEGFR2) of the same molecule?
Answer: 21.9 nM

Question: And the GI50 (Ba/F3-KIF5B-RET cell)?
Answer: 43.8 nM
